Patent US7412284B2, “Apparatus for electroporation mediated delivery for drugs and genes” (Genetronics, Inc., priority 1997, dated 2008)
“Also recorded” adds a separate entry of the source. Marks after values point to notes of the source that are not given here.

Key:
[1] = test system: poorly differentiated human pancreatic tumor (Panc-3); experiment: EPT with bleomycin of Panc-3 tumors xenografted in nude mice; format: in vivo, nude mouse; conditions: for Complete Regression (100%), number of mice / Death, number of mice / No Response, number of mice / Partial Regression (≧80%), number of mice / Tumor regrowth, number of mice: of 25 mice treated; for Tumor volume (mm^3) T1: treated mouse T1; for Tumor volume (mm^3) T2: treated mouse T2
Protocol: The single treatment procedure involved injection of bleomycin (0.5 units in 0.15 ml saline) intratumorally, using fanning, as described herein followed by application of six square wave electrical pulses, ten minutes later, using needle array electrodes as described in the present application, arranged along the circumference of a circle 1 cm in diameter. Needle array of variable diameters (e.g., 0.5 cm, 0.75 cm and 1.5 cm can also be used to accommodate tumors of various sizes. Stoppers of various heights can be inserted at the center of the array to make the penetration depth of the needles into the tumor variable. A built-in mechanism allowed switching of electrodes for maximum coverage of the tumor by the pulsed field. The electrical parameters were: 780 V/cm center field strength and 6×99 μs pulses spaced at 1 sec interval.
The tumor cell line Panc-3, a poorly differentiated adenocarcinoma cell line of the pancreas, was supplied by AntiCancer, Inc., San Diego. For EPT experiments, tissue taken from the stock mice, where the tumor line was maintained, was thawed and cut into very small pieces about 1 mm each, and 8-10 pieces were surgically xenografted in a subcutaneous sac made in left flank of nude mice, and then closed with 6.0 surgical suture. […] The tumor dimensions were measured and the tumor volume calculated using the formula: (II/6)×a×b×c where a, b, and c a are, respectively, the length, width and thickness of the tumor. 0.5 units Bleomycin (Sigma Chemicals) was dissolved in 0.15 ml of 0.9% NaCl and was injected in each mice intratumorally by fanning for both the control (D+E−) and the treated (D+E+) groups. Ten minutes after the injection, each mouse in the D+E+ group was pulsed from a BTX T820 square wave electroporator with a set of needle array electrodes as described in the present invention. Electrical parameters used were as follows: field strength 1300 V/cm, 6 pulses of 99 μs each, at 1 sec interval.
The mice were monitored every day for mortality and any signs of a diseased state were noted. The tumor dimensions were measured at regular intervals and tumor growth regression/progression monitored.

[2] = test system: human prostate xenografts (PC-3); experiment: EPT using MedPulser, PC-3 xenograft; format: in vivo, nude mice; conditions: no tumors observed up to 60 days after treatment
Text: Preliminary experiments using MedPulser™ (apparatus of the invention) for treatment of tumor xenografts grown subcutaneously onto nude mice have shown encouraging results. […] Treatment of human prostate xenografts (PC-3) has also shown about 66% complete regression of tumors. (No tumors observed up to 60 days after treatment). Both 4 and 6 needle array are effective in treatment of tumors by EPT.

bleomycin
treated mice with no response ([1]; 2/25): 8%
treated mice that died ([1]; 20 days after treatment, 1/25): 4%
treated mice with partial (>80%) regression ([1]; 28 days following treatment, 5/25): 20%
treated mice with complete tumor regression ([1]; 28 days following treatment, 17/25): 68%
mice with tumor regrowth ([1]; 35 days after treatment, at a much slower rate): 8%
histology of tumor samples ([1]; D+E+ group, 35 days after the treatment): necrotic tumor cell ghosts; also recorded: severe necrosis of the tumor region
histology of samples from tumor site ([1]; after 120 days): complete absence of tumor cells
cases with no palpable tumor ([1]; after 120 days of the treatment, 16/25): 64%
necrosis and edema at the treatment site ([1]; bleomycin 0.5 units intratumoral + pulses): severe necrosis and edema in nearly all the mice
tumor volume ([1]; control group D+E− (drug, no pulsing)): increased dramatically
Complete Regression (100%), number of mice ([1]; 28 days after treatment): 17
Death, number of mice ([1]; 28 days after treatment): 1
No Response, number of mice ([1]; 28 days after treatment): 2
Partial Regression (≧80%), number of mice ([1]; 28 days after treatment): 5
Complete Regression (100%), number of mice ([1]; 35 days after treatment): 16
No Response, number of mice ([1]; 35 days after treatment): 2
Partial Regression (≧80%), number of mice ([1]; 35 days after treatment): 3
Complete Regression (100%), number of mice ([1]; 57 days after treatment): 16
Partial Regression (≧80%), number of mice ([1]; 57 days after treatment): 3
Tumor regrowth, number of mice ([1]; 57 days after treatment): 2
No Response, number of mice ([1]; 57 days after treatment, footnote a: mice sacrificed due to increased tumor burden): 1^a
Complete Regression (100%), number of mice ([1]; 84 days after treatment): 16
No Response, number of mice ([1]; 84 days after treatment): 1
Partial Regression (≧80%), number of mice ([1]; 84 days after treatment): 3
Death, number of mice ([1]; 84 days after treatment, 1 died after treatment, 1 with no palpable tumor died after 64 days): 2^b
Complete Regression (100%), number of mice ([1]; 94 days after treatment): 16
No Response, number of mice ([1]; 94 days after treatment): 1
Partial Regression (≧80%), number of mice ([1]; 94 days after treatment): 3
Tumor regrowth, number of mice ([1]; 94 days after treatment, footnote d: secondary metastatic tumor): 1^d
Complete Regression (100%), number of mice ([1]; 120 days after treatment): 16
Partial Regression (≧80%), number of mice ([1]; 120 days after treatment, footnote e: fibrous tissue): 3^e
time monitored to be without tumors ([1]; representative animals (2/17), then euthanized): 243 days
tumor volume ([1]; treated group D+E+ (drug + electrical field)): substantial reduction in the tumor volume
detectable tumor ([1]; treated mice, after approximately 24 days): essentially no detectable tumor
Tumor volume (mm^3) T1 ([1]; 0 days after treatment): 123.110 mm^3
Tumor volume (mm^3) T1 ([1]; 1 day after treatment): 210.950 mm^3
Tumor volume (mm^3) T1 ([1]; 8 days after treatment): 104.550 mm^3
Tumor volume (mm^3) T1 ([1]; 15 days after treatment): 113.210 mm^3
Tumor volume (mm^3) T1 ([1]; 18 days after treatment): 161.730 mm^3
Tumor volume (mm^3) T1 ([1]; 24 days after treatment): 41.560 mm^3
Tumor volume (mm^3) T1 ([1]; 28 days after treatment): 0 mm^3
Tumor volume (mm^3) T1 ([1]; 35 days after treatment): 0 mm^3
Tumor volume (mm^3) T1 ([1]; 38 days after treatment): 0 mm^3
Tumor volume (mm^3) T1 ([1]; 43 days after treatment): 0 mm^3
Tumor volume (mm^3) T2 ([1]; 0 days after treatment): 178.370 mm^3
Tumor volume (mm^3) T2 ([1]; 1 day after treatment): 252.720 mm^3
Tumor volume (mm^3) T2 ([1]; 8 days after treatment): 211.110 mm^3
Tumor volume (mm^3) T2 ([1]; 15 days after treatment): 226.966 mm^3
Tumor volume (mm^3) T2 ([1]; 18 days after treatment): 246.910 mm^3
Tumor volume (mm^3) T2 ([1]; 24 days after treatment): 47.223 mm^3
Tumor volume (mm^3) T2 ([1]; 28 days after treatment): 0 mm^3
Tumor volume (mm^3) T2 ([1]; 35 days after treatment): 0 mm^3
Tumor volume (mm^3) T2 ([1]; 38 days after treatment): 0 mm^3
Tumor volume (mm^3) T2 ([1]; 43 days after treatment): 0 mm^3
complete regression of tumors [2]: about 66%
